These results are taken from ChEMBL document CHEMBL3611992, “Synthesis and Structure-Activity Relationships of Quaternary Coptisine Derivatives as Potential Anti-ulcerative Colitis Agents” (J Med Chem, 2015).

One may read the inhibition in vivo as how much of the control response was suppressed.

Data set [1] in a line: Cytotoxicity against rat IEC-6 cells assessed as cell survival at 10 uM after 24 to 72 hrs by MTT assay. Type of data set: cell-based. The following applies: iec-6, 10 µM. Background: Tetrazolium dyes change colour on reduction, which living cells bring about.
Data set [2] concerns the target T1, X-box-binding protein 1 (Homo sapiens) (UniProt P17861).
T1 sequence (whole entry): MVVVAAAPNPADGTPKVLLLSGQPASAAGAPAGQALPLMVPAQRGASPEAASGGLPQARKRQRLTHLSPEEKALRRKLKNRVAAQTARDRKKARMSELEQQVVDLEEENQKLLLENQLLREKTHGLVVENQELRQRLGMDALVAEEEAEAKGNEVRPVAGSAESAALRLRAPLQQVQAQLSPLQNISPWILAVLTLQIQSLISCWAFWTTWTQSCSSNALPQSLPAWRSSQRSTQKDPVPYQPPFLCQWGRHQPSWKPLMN
Briefly: Transactivation of XBP1 (unknown origin) transfected in rat IEC-6 cells at 10 uM after 48 hrs by dual luciferase reporter gene assay. Type of data set: cell-based. (In general: In a reporter assay the amount or activity of a reporter protein is the signal.)

For data set [3], the species on record is Mus musculus. Briefly: Anti-ulcerative colitis activity in DSS-induced acute C57Bl/6J mouse ulcerative colitis model. Type of data set: functional, organism-based.
The species named for data set [4] is Mus musculus. Put plainly: Toxicity in C57Bl/6J mouse. Conditions: in vivo. Format: organism-based.
The subject of data set [5] is Mus musculus. Briefly: Toxicity in DSS-induced acute C57Bl/6J mouse ulcerative colitis model assessed as change in body weight at 300 mg/kg, po qd (reference value: -15.3%). Format: organism-based. Conditions: in vivo.
Data set [6] has as its system Mus musculus. Put plainly: Anti-ulcerative colitis activity in DSS-induced acute C57Bl/6J mouse ulcerative colitis model assessed as inhibition rate of disease activity index at 300 mg/kg, po qd measured on day 8 relative to control. Type of data set: functional. The following applies: 192 h.
The subject of data set [7] is Mus musculus. Briefly: Anti-ulcerative colitis activity in DSS-induced acute C57Bl/6J mouse ulcerative colitis model assessed as colon macroscopic damage index at 300 mg/kg, po qd measured on day 8 (reference value: 5.69 +/- 1.12). Type of data set: functional.
The test system of data set [8] is Mus musculus. Briefly: Anti-ulcerative colitis activity in DSS-induced acute C57Bl/6J mouse ulcerative colitis model assessed as improvement in colon contracture at 300 mg/kg, po qd measured on day 8 (reference value: 41.8%). Type of data set: functional.
The test system of data set [9] is Mus musculus. Put plainly: Anti-ulcerative colitis activity in DSS-induced acute C57Bl/6J mouse ulcerative colitis model assessed as improvement in number of visible colitis lesions at 300 mg/kg, po qd measured on day 8. Type of data set: functional, organism-based.
Data set [10] concerns Mus musculus. Put plainly: Anti-ulcerative colitis activity in DSS-induced acute C57Bl/6J mouse ulcerative colitis model assessed as recovery of each muscle layer structure at 300 mg/kg, po qd measured on day 8. Type of data set: functional, organism-based.
Data set [11] has as its target T1, X-box-binding protein 1 (Homo sapiens). Briefly: Transactivation of XBP1 (unknown origin) transfected in rat IEC-6 cells at 10 uM after 48 hrs by dual luciferase reporter gene assay relative to con 2. Type of data set: cell-based.
The test system of data set [12] is Mus musculus. Briefly: Toxicity in DSS-induced acute C57Bl/6J mouse ulcerative colitis model assessed as change in body weight at 200 mg/kg, po qd (reference value: -15.3%). The following applies: in vivo. Format: organism-based.
For data set [13], the system named is Mus musculus. Briefly: Toxicity in DSS-induced acute C57Bl/6J mouse ulcerative colitis model assessed as change in body weight at 100 mg/kg, po qd (reference value: -15.3%). Type of data set: organism-based. Conditions: in vivo.
Data set [14] relates to Mus musculus. Put plainly: Toxicity in DSS-induced acute C57Bl/6J mouse ulcerative colitis model assessed as change in body weight at 50 mg/kg, po qd (reference value: -15.3%). Type of data set: organism-based. Conditions: in vivo.
The subject of data set [15] is Mus musculus. Briefly: Anti-ulcerative colitis activity in DSS-induced acute C57Bl/6J mouse ulcerative colitis model assessed as inhibition rate of disease activity index at 200 mg/kg, po qd measured on day 8 relative to control. Type of data set: functional. Conditions: 192 h.
The subject of data set [16] is Mus musculus. Briefly: Anti-ulcerative colitis activity in DSS-induced acute C57Bl/6J mouse ulcerative colitis model assessed as inhibition rate of disease activity index at 100 mg/kg, po qd measured on day 8 relative to control. Type of data set: functional. Conditions: 192 h.
Data set [17] relates to Mus musculus. Briefly: Anti-ulcerative colitis activity in DSS-induced acute C57Bl/6J mouse ulcerative colitis model assessed as inhibition rate of disease activity index at 50 mg/kg, po qd measured on day 8 relative to control. Type of data set: functional. Conditions: 192 h.
The test system of data set [18] is Mus musculus. Briefly: Anti-ulcerative colitis activity in po dosed DSS-induced acute C57Bl/6J mouse ulcerative colitis model assessed as inhibition rate of disease activity index administered as qd measured on day 8. Format: functional, organism-based.
The subject of data set [19] is Mus musculus. Put plainly: Anti-ulcerative colitis activity in DSS-induced acute C57Bl/6J mouse ulcerative colitis model assessed as improvement in colon contracture at 200 mg/kg, po qd measured on day 8 (reference value: 41.8%). Type of data set: functional.
The subject of data set [20] is Mus musculus. Put plainly: Anti-ulcerative colitis activity in DSS-induced acute C57Bl/6J mouse ulcerative colitis model assessed as improvement in colon contracture at 100 mg/kg, po qd measured on day 8 (reference value: 41.8%). Format: functional.
Data set [21] relates to Mus musculus. Briefly: Anti-ulcerative colitis activity in DSS-induced acute C57Bl/6J mouse ulcerative colitis model assessed as improvement in colon contracture at 50 mg/kg, po qd measured on day 8 (reference value: 41.8%). Format: functional.

Activity calls are given as the source filed them. The rule behind the calls is not given here.

`Cc1ccc(Cc2c3[n+](cc4c5c(ccc24)OCO5)CCc2cc4c(cc2-3)OCO4)cc1.[Cl-]`: the Activity result in data set [1] is given as “Toxic”.
With `C=C(C(=O)CCC)c1c2c3c(ccc2c(C)c2[n+]1CCc1cc4c(cc1-2)OCO4)OCO3`, the result in [2] was inactive.
Take `C=C(C(=O)CC)c1c2c3c(ccc2c(C)c2[n+]1CCc1cc4c(cc1-2)OCO4)OCO3`: the result in data set [3] was inactive.
Take `Fc1cccc(Cc2c3[n+](cc4c5c(ccc24)OCO5)CCc2cc4c(cc2-3)OCO4)c1`: the outcome in data set [2] was Active. Further, in data set [3], the outcome was inactive.
With `Fc1ccccc1CC1=C2c3cc4c(cc3CCN2Cc2c1ccc1c2OCO1)OCO4`, the result in data set [2] was Active.
The same measure, in the same setting: as for `C1=CC2CC=CCN2CC1` (centres undefined), the entry is “Active”.
As for `c1cc2c(c3c1CC1c4cc5c(cc4CCN1C3)OCO5)OCO2` (centres undefined), the outcome in [3] was inactive.
For `Fc1ccc(CC2=C3c4cc5c(cc4CCN3Cc3c2ccc2c3OCO2)OCO5)cc1`, in data set [2], the outcome was Active.
The same measure, in the same setting: as for `C=C(C(=O)c1ccc(OC)cc1)c1c2c3c(ccc2c(C)c2[n+]1CCc1cc4c(cc1-2)OCO4)OCO3`, the entry is “inactive”.
As for `Cc1ccc(CC2=C3c4cc5c(cc4CCN3Cc3c2ccc2c3OCO2)OCO5)cc1`, the outcome in data set [2] was Active.
For the compound `Fc1ccc(Cc2c3[n+](cc4c5c(ccc24)OCO5)CCc2cc4c(cc2-3)OCO4)cc1`, in data set [2], the outcome was Active. For the same compound, the outcome in data set [3] was inactive.
For the compound `COc1ccc(Cc2c3[n+](cc4c5c(ccc24)OCO5)CCc2cc4c(cc2-3)OCO4)cc1`, in data set [2], the outcome was Active. The result in [3] was inactive.
For `Cc1c2[n+](cc3c4c(ccc13)OCO4)CCc1cc3c(cc1-2)OCO3`, in that order: “Active” and “inactive”.
In the case of `C=C(C(=O)C1CC1)c1c2c3c(ccc2c(C)c2[n+]1CCc1cc4c(cc1-2)OCO4)OCO3`, in [2], the outcome was inactive.
`CC1=C2c3cc4c(cc3CCN2Cc2c1ccc1c2OCO1)OCO4`: in data set [2], the outcome was Active. The outcome in [3] was inactive.
As to `COc1ccc(CC2=C3c4cc5c(cc4CCN3Cc3c2ccc2c3OCO2)OCO5)cc1`, the outcome in data set [2] was Active.
Take `N#CC1c2c(ccc3c2OCO3)C=C2c3cc4c(cc3CCN21)OCO4` (racemic): the outcome in [2] was Active. For the same compound, in data set [4], the Activity entry was “Toxic”.
Turning to `Fc1cccc(CC2=C3c4cc5c(cc4CCN3Cc3c2ccc2c3OCO2)OCO5)c1`, the result in data set [2] was Active.
Still for that read-out and setting: as for `C=C(C(=O)c1ccc(CC(C)C)cc1)c1c2c3c(ccc2c(C)c2[n+]1CCc1cc4c(cc1-2)OCO4)OCO3`, the entry is “inactive”.
Regarding `O=c1c2c3c(ccc2cc2n1CCc1cc4c(cc1-2)OCO4)OCO3`, the result in data set [2] was Active. For the same compound, the outcome in data set [3] was inactive.
`Fc1ccc(CC2=C3c4cc5c(cc4CCN3Cc3c2ccc2c3OCO2)OCO5)c(F)c1`: the result in data set [2] was Active.
Regarding `FC(F)(F)c1cccc(Cc2c3[n+](cc4c5c(ccc24)OCO5)CCc2cc4c(cc2-3)OCO4)c1.[Cl-]`, the Activity result in data set [1] was “Toxic”.
For `C=C(C(C)=O)c1c2c3c(ccc2c(C)c2[n+]1CCc1cc4c(cc1-2)OCO4)OCO3`, the result in data set [3] was inactive.
For the compound `Fc1ccccc1Cc1c2[n+](cc3c4c(ccc13)OCO4)CCc1cc3c(cc1-2)OCO3`, the result in data set [2] was Active. Further, in data set [3], the outcome was inactive.
For `Fc1ccc(Cc2c3[n+](cc4c5c(ccc24)OCO5)CCc2cc4c(cc2-3)OCO4)c(F)c1`, in that order: “Active” and “inactive”.
On to `O=C(O)c1cc(/N=N/c2ccc(S(=O)(=O)Nc3ccccn3)cc2)ccc1O` [SULFASALAZINE], for which the results for the Activity in [5] and in data set [8] were -8.42% and 30%, respectively. In data set [6], the inhibition in vivo at 300 mg/kg stood at 30.6%. In addition, in [7], the Activity_index is recorded as 3.98. In addition, the result in data set [9] and in data set [10] was Active.
As to `N#Cc1ccc(CC2=C3c4cc5c(cc4CCN3Cc3c2ccc2c3OCO2)OCO5)cc1`, in data set [2], the outcome was Active.
Take `C=C(C(=O)CCCC)c1c2c3c(ccc2c(C)c2[n+]1CCc1cc4c(cc1-2)OCO4)OCO3`: in data set [2], the result was inactive.
The same measure, in the same setting: then `C=C(C(=O)C(C)C)c1c2c3c(ccc2c(C)c2[n+]1CCc1cc4c(cc1-2)OCO4)OCO3`, with “inactive”; and `C=C(C(=O)C(C)(C)C)c1c2c3c(ccc2c(C)c2[n+]1CCc1cc4c(cc1-2)OCO4)OCO3`, with “inactive”.
`CC(=O)CC1c2c(ccc3c2OCO3)C=C2c3cc4c(cc3CCN21)OCO4` (racemic): the result in data set [2] was Active. The compound also came in with a fold change (FC) in data set [11] of 2.06. For the same compound, the Activity in data set [12] is given as 3.33%; in [13] it was 3.26%; in data set [14], -12.9%; in data set [19], 20.4%; in [20], 28.8%; in data set [21], 38.3%. Also, the inhibition in vivo at 200 mg/kg in data set [15] was determined as 63.8%. In addition, the inhibition in vivo at 100 mg/kg in data set [16] turned out to be 60.3%. Also, the inhibition in vivo at 50 mg/kg in data set [17] was determined as 36.4%. Moreover, the inhibition entry in data set [18] was “Dose-dependent effect”.
As to `FC(F)(F)c1cccc(CC2=C3c4cc5c(cc4CCN3Cc3c2ccc2c3OCO2)OCO5)c1`, in data set [2], the outcome was Active.
As for `N#Cc1ccc(Cc2c3[n+](cc4c5c(ccc24)OCO5)CCc2cc4c(cc2-3)OCO4)cc1`, the outcome in data set [2] was Active. Further, the result in [3] was inactive.
